Molecules are shown by their SMILES.

This test concerns the target human DGAT1 (Homo sapiens (Human), UniProt O75907). Description: Human DGAT1 enzyme inhibition test (phospholipid FlashPlate, [14C]decanoyl-CoA). Type of test: biochemical. The conditions noted are these: for IC50: lysate of Hep3B cells over-expressing human DGAT1 (5 μg/well), didecanoyl glycerol and [14C]decanoyl-CoA substrates; for in vitro inhibition activity with respect to DGAT1: verbal summary of Table 1. The procedure: The cells were treated with 200 μg/ml G-418(Sigma) once every three days for 4 weeks to over-express the human DGAT1, thereby obtaining a stabilized cell line. The over-expressed cells were put into a homogenization buffer [250 mM sucrose, 10 mM Tris-HCl (pH 7.4), 1 mM EDTA] and lysed by a homogenization apparatus. Then, centrifugation was performed with 600×g for 15 minutes to remove cell residue, and the obtained cells were used for an enzyme inhibition test. Human DGAT-1 and mouse DGAT activity was determined as follows: Assay buffer [20 mM HEPES (pH 7.4), 100 mM MgCl2, 0.04% BSA] containing 500 μM of enzyme substrate (didecanoyl glycerol) and 7.5 μM radiolabeled acyl-CoA substrate ([^14C]decanoyl-CoA) was added to each well of a phospholipid FlashPlate (PerkinElmer Life Sciences). A small aliquot of lysate (5 μg/well) or mouse liver microsome (0.1 mg/well) was added to start the reaction, which was allowed to proceed in a 20° C. bath for 1 hour. and maintained overnight at room temperature. Next day, measurement was performed by Wallac 1450 Microbeta Trilux Liquid Scintillation Counter and Luminometer (PerkinElmer Life Science). […] A calculation method of inhibition degree (%) is as follows.

human DGAT1, sequence (O75907 whole entry): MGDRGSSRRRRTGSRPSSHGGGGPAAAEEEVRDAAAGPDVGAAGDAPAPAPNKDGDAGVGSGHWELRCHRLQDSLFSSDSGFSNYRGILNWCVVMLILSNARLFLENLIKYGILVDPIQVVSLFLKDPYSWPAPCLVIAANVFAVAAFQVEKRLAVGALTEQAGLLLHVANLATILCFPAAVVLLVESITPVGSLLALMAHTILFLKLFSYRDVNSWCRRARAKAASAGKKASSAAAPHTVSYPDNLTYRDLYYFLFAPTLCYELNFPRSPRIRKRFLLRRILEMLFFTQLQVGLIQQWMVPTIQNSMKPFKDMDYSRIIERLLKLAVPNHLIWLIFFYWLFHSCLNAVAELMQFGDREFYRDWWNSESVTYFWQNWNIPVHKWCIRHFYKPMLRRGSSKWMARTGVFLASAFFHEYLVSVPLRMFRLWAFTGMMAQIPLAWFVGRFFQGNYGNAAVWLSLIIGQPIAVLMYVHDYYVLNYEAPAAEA

`O=C(O)C[C@H]1CC[C@H](c2ccc(NC(=O)CCNC(=O)c3cn(-c4ccccc4Cl)nc3C(F)(F)F)cc2)CC1` [Compound 51, trans-{4-[4-(3-{[1-(2-Chlorophenyl)-3-trifluoromethyl-1H-pyrazole-4-carbonyl]amino}propionylamino)phenyl]cyclohexyl}acetic acid] registered an IC50 of less than 100 nM.
Turning to `O=C(O)C[C@H]1CC[C@H](c2ccc(NC(=O)CCNC(=O)c3nc(-c4ccccc4Cl)oc3C(F)(F)F)cc2)CC1` [Compound 11, trans-{4-[4-(3-{[2-(2-chlorophenyl)-5-trifluoromethyloxazole-4-carbonyl]amino}propionylamino)phenyl]cyclohexyl}acetic acid], the IC50 is less than 50 nM and the “in vitro inhibition activity with respect to DGAT1” value is “good to excellent”.
For `O=C(O)C[C@H]1CC[C@H](c2ccc(NC(=O)CCNC(=O)c3nc(-c4ccccc4Br)oc3C(F)(F)F)cc2)CC1` [Compound 65, trans-{4-[4-(3-{[2-(2-Bromophenyl)-5-trifluoromethyloxazole-4-carbonyl]amino}propionylamino)phenyl]cyclohexyl}acetic acid], in that order: less than 50 nM and “good to excellent”.
The like results for `O=C(O)C[C@H]1CC[C@H](c2ccc(NC(=O)CCNC(=O)c3nc(-c4c(Cl)cc(F)cc4Cl)oc3C(F)(F)F)cc2)CC1` [Compound 105] were, in that order, less than 50 nM and “good to excellent”.
The like results for `O=C(O)C[C@H]1CC[C@H](c2ccc(NC(=O)CCNC(=O)c3nc(-c4ccccc4F)oc3C(F)(F)F)cc2)CC1` [Compound 60, trans-{4-[4-(3-{[2-(2-Fluorophenyl)-5-trifluoromethyloxazole-4-carbonyl]amino}propionylamino)phenyl]cyclohexyl}acetic acid] were, in that order, less than 50 nM and “good to excellent”.
Compound `Cc1cccc(C)c1-c1ccc(C(=O)NCCC(=O)Nc2ccc([C@H]3CC[C@H](CC(=O)O)CC3)cc2)cc1` [Compound 75, trans-[4-(4-(3-(2′,6′-dimethylbiphenyl-4-carbonylamino)propionylamino)phenyl)cyclohexyl]acetic acid] showed an IC50 of less than 100 nM.
`O=C(O)C[C@H]1CC[C@H](c2ccc(NC(=O)CCNC(=O)c3nc(-c4c(Cl)cccc4Cl)oc3C(F)(F)F)cc2)CC1` [Compound 68, trans-{4-[4-(3-{[2-(2,6-dichlorophenyl)-5-trifluoromethyloxazole-4-carbonyl]amino}propionylamino)phenyl]cyclohexyl}acetic acid]: the IC50 is less than 50 nM and the “in vitro inhibition activity with respect to DGAT1” value is “good to excellent”.
`O=C(O)C[C@H]1CC[C@H](c2ccc(NC(=O)CCNC(=O)c3nc(-c4ccccc4Cl)oc3C(F)(F)F)cc2)CC1` [Compound 79, sodium; trans-{4-[4-(3-{[2-(2-chlorophenyl)-5-trifluoromethyloxazole-4-carbonyl]amino}propionylamino)phenyl]cyclohexyl}acetate] yielded an IC50 of less than 50 nM.
